What is called inhibition is the drop in the measured response relative to a control, in per cent. Read a low inhibition as a response near the control. As usually defined, the Kd is the concentration at which binding is half-saturated. A high value points to weaker binding.

Assay [1] deals with T1, GABABR1a-SD1 (SD1-FITC-9mer complex) (Homo sapiens, UniProt Q9UBS5).
T1 construct: The synthetic gene encoding for residues 26-96 of the Sushi1 protein was cloned into a pFloat-SUMO vector; His-SUMO (with 3C protease site) (N, cleaved yes); made in house; host or cells: E. coli BL21(DE3)
T1 sequence (Q9UBS5 26-96, one chain of several): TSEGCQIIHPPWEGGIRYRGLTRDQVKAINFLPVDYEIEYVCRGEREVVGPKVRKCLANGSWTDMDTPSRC
In words: Fluorescence polarization (FP) competition assay with FITC-9mer. The following applies: peptide at 50 μM; inhibition of FITC-9mer binding to SD1. The assay is classed as binding. On the procedure:
Intrigued by the surprising results of the 5-mer, it was decided to set up a medium- to high-throughput screen to optimize the 5-mer sequence. Several assays were tested to find a reproducible, robust and cost-effective assay that is also suitable for high-throughput screening. A fluorescence polarization (FP) assay was selected. FP measurements are well-known for receptor binding assays. The assay is based on the rotational movement of fluorescently labelled molecules in solution. […] The FP assay was optimized using the FITC labelled sAPP 9-mer (FIG. 1).
To screen for GABABR1a binders using unlabelled test compounds, the assay was turned into a competition assay using FITC-9mer. […] To validate this inhibitor assay, the IC50 values were determined of the 17-mer, 9-mer, 5-mer as well as those from 3 negative controls: 10-mer, scrambled 17-mer and a scrambled 9-mer (FIG. 2).
To determine if the peptides of this application were able to disrupt the SD1-9-mer complex, each peptide (in single point or dose-response curve) tested was incubate with SD1 protein for 1 h at RT. After this initially incubation, FITC-9mer was added to the previous mix and incubated during 2 h at RT. The signal intensity was measure in an appropriate plate reader using the following settings: Number of flashes per well: 200; Excitation: F482-16; Dichroic filter: FLP 504; Emission A F530-40; Gain A: 738, Gain B: 736. The assay was conducted in a 384-well plate.
A general note: Fluorescence polarisation rises when a labelled molecule tumbles more slowly, as on binding a larger partner.

The target in assay [2] is T2, HEK293 cells expressing the ectodomain of GABABR1a comprising SD1 (Homo sapiens, UniProt Q9UBS5).
T2 construct: HEK293 were transfected with plasmids encoding the ectodomain of GABABR1a (as in Rice et al., 2019); expressed in transfected cells; host or cells: HEK293
T2 sequence (Q9UBS5 20-591 limits assumed): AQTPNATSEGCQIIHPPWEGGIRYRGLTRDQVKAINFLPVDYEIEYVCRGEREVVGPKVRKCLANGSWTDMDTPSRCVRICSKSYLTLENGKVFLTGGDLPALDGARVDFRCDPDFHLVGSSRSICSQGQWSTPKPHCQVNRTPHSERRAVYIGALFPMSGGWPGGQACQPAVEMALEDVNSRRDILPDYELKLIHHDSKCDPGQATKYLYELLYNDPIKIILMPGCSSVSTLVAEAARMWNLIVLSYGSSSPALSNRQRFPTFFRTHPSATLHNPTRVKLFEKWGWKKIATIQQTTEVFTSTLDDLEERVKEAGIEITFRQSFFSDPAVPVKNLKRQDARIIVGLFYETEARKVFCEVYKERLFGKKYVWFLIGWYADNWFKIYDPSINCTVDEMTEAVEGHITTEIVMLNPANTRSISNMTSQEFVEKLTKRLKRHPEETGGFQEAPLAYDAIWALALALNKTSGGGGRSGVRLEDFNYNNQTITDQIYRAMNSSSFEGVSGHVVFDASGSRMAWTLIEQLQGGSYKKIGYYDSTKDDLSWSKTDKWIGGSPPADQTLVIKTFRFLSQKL
Nature of the assay: Flow-cytometry cell-based binding assay, competition with biotinylated 9-mer. The following applies: peptide at 100 μM, inhibition of biotin-9mer (10 μM) binding. How it is done:
HEK cells expressing GABABR1a-SD1 were incubated with peptides of the application and the binding of 9-mer in the presence of the peptides was measured. The 9-mer peptide is biotinylated and detected with a commercial antibody.
Next, the top ranking compounds were tested in a cell-based binding assay. HEK293 cells were transformed to express the ectodomain of GABABR1a comprising SD1. In this cell-based assay, SD1 is expressed on the GABABR1a ectodomain and can adopt a more physiological conformation, compared to the purified SD1 protein used in the primary assay (FP assay).
HEK293 were transfected with plasmids encoding the ectodomain of GABABR1a (as in Rice et al., 2019), carrying a His-tag at the N-terminal. After 24 h of expression, cells were harvested and adjusted to a concentration of 1×10^6 cells/mL in ice-cold 2% FBS/PBS. Incubation with each peptide (in dose-response curve) was carried out at 4° C. for 1 h, followed by incubation with the biotion-9mer (10 μM) peptide during 30 min. Detection antibodies recognizing either His protein or biotin were added for a period of 30 min. The assay plate containing the cells was loaded into the Attune NxT Cytometer, parameters were adjusted accordingly with the cell type and signal intensity. In each experiment, positive and negative control were added to the plate.

The target in assay [3] is T3, sushi domain 1 (SD1) of GABABR1a (Homo sapiens, UniProt Q9UBS5).
T3 construct: The synthetic gene encoding for residues 26-96 of the Sushi1 protein was cloned into a pFloat-SUMO vector; His-SUMO (with 3C protease site) (N, cleaved yes); made in house; host or cells: E. coli BL21(DE3)
Nature of the assay: Isothermal titration calorimetry (ITC) direct binding assay. The following applies: for ITC Kd: peptide titrated into Sushi-1 protein in PBS. The text has this: In contrast to the FP assay, the isothermal titration calorimetry (ITC) assay is a direct binding assay.
For biophysical and structural biology purposes the Sushi1 protein was expressed in a bacterial expression system. The synthetic gene encoding for residues 26-96 of the Sushi1 protein was cloned into a pFloat-SUMO vector, generating a His-tagged SUMO-Sushi1 fusion protein. The construct also contained a 3C protease cleavage site to remove the His-SUMO-tag. The pFloat-SUMO-Sushi1 plasmid was transformed in BL21(DE3) cells and plated on kanamycin ([…]) containing LB agar plates. A small LB culture, supplemented with […] kanamycin, was inoculated with a single colony of BL21(DE3)(pFloat-SUMO-Sushi1) and grown overnight at 37° C. 1 liter LB cultures were subsequently inoculated with 20 ml of this preculture and grown at 37° C. until OD600 reached 0.8. At this point protein expression was induced using 0.5 mM isopropyl β-D-1-thiogalactopyranoside (IPTG). Cells were incubated further overnight at 20° C. and subsequently harvested by centrifugation (Beckman rotor 8.1000, 5000 rpm, 15 min, 4C). The pellet was resuspended in 20 mM Tris pH 7.5, 500 mM NaCl, 10 mM imidazole, 5 mM β-mercaptoethanol, 0.1 mg/mL 4-(2-aminoethyl) benzenesulfonyl fluoride hydrochloride (AEBSF), 1 μg/mL leupeptine, 50 μg/mL DNasel and 20 mM MgCl2. The cells were lysed using a French press (Constant Systems) at 20 kpsi and the cell debris was removed by centrifugation. The cell lysate was loaded on a Ni-sepharose FF HiLoad column (GE Healthcare), equilibrated in 20 mM Tris pH 7.5, 500 mM NaCl, 10 mM imidazole, 5 mM […]. The bound proteins were eluted using a linear gradient to 500 mM imidazole. Fractions containing the His-SUMO-Sushi1 protein were pooled and dialysed overnight to 20 mM Tris pH 7.5, 150 mM NaCl, while cleaving with 3C protease. The cleaved sample was loaded again on a Ni-sepharose FF HiLoad column, equilibrated in the same buffer. The FT, containing the Sushi1 protein, was concentrated and applied to a BioRad S100 16/60 size exclusion column, equilibrated in 50 mM KPi buffer pH 6.0, 50 mM NaCl.
The Sushi-1 protein was dialysed overnight to PBS buffer and diluted to 30 μM in the same buffer. The peptides were resuspended in PBS at a stock concentration of 3 mM and diluted further in the same buffer to 300 μM. ITC experiments were performed on a Microcal ITC200 device. Titrations comprised 26×1.5 μL injections of peptide into protein, with 90 s intervals. An initial injection of ligand (0.5 μL) was made and discarded during data analysis. The data were fitted to a single binding site model using the Microcal LLC ITC200. Original software provided by the manufacturer.

Assay [4] addresses T4, Sushi domain 1 of the human GABA B1a receptor (human, UniProt Q9UBS5 26-96).
T4 construct: Purified recombinant protein from E. coli; also called SD1; GABABR1a-SD1
In words: ITC. On the procedure: In the mutagenesis experiment of Example 1 we also included an 8-mer lacking position 9.
The Sushi-1 protein was dialysed overnight to PBS buffer and diluted to 30 μM in the same buffer. The peptides were resuspended in PBS at a stock concentration of 3 mM and diluted further in the same buffer to 300 μM. ITC experiments were performed on a Microcal ITC200 device. Titrations comprised 26×1.5 μL injections of peptide into protein, with 90 s intervals. An initial injection of ligand (0.5 μL) was made and discarded during data analysis. The data were fitted to a single binding site model using the Microcal LLC ITC₂₀₀. Original software provided by the manufacturer.
Background: In ITC the heat of successive injections is recorded.

*1 amine or outer side, *2 acyl side, *3 side chain or, on linkers, in order; H or OH if unused. Where a SMILES comes first, the peptide text is derived from it. Where no end group is shown, it is not given here. [ ]: non-standard residue; d: D form. X2 = O=C([C@H](CC1CCC(F)(F)CC1)N[*:1])[*:2]; 2Nal = N[C@@H](Cc1ccc2ccccc2c1)C(=O)O; hCha = N[C@@H](CCC1CCCCC1)C(=O)O; Cha = N[C@@H](CC1CCCCC1)C(=O)O; F72 = not defined here

T4 sequence (Q9UBS5 26-96 limits assumed): as the sequence (Q9UBS5 26-96, one chain of several) above

`CC[C@H](C)[C@H](NC(=O)[C@H](N)CC(=O)O)C(=O)N[C@@H](Cc1c[nH]c2cc(Cl)ccc12)C(=O)N[C@@H](Cc1c[nH]c2ccccc12)C(=O)N[C@@H](CO)C(=O)O` [VIB-0068894] showed an inhibition at 50 µM in assay [1] of 96.8%. This molecule also had an inhibition at 100 µM in assay [2] of 84.2%. Also, the “ITC Kd” value in assay [3] is “bound as good as the 17-mer”.

Molecule `CC[C@H](C)[C@H](NC(=O)[C@H](N)CC(=O)O)C(=O)N[C@@H](Cc1ccc2ccccc2c1)C(=O)N[C@@H](Cc1c[nH]c2ccccc12)C(=O)N[C@@H](CO)C(=O)O` [VIB-0068895] (H-[dD]I[2Nal]WS-OH; N-terminus and C-terminus assumed) showed an inhibition at 50 µM in assay [1] of 96.3%. The inhibition at 100 µM in assay [2] turned out to be 77%.

In the case of `CC[C@H](C)[C@H](NC(=O)[C@H](N)CC(=O)O)C(=O)N[C@@H](CCC1CCCCC1)C(=O)N[C@@H](Cc1c[nH]c2ccccc12)C(=O)N[C@@H](CO)C(=O)O` [VIB-0068903] (H-[dD]I[hCha]WS-OH; N-terminus and C-terminus assumed), testing at 50 µM in assay [1] gave an inhibition of 93.9%. In addition, the inhibition at 100 µM in assay [2] is 76%.

Turning to `CC[C@H](C)[C@H](NC(=O)[C@H](N)CC(=O)O)C(=O)N[C@@H](CC1CCCCC1)C(=O)N[C@@H](Cc1c[nH]c2ccccc12)C(=O)N[C@@H](CO)C(=O)O` [VIB-0068905] (H-[dD]I[Cha]WS-OH; N-terminus and C-terminus assumed), testing at 50 µM in assay [1] gave an inhibition of 94.8%. This molecule also gave an inhibition at 100 µM in assay [2] of 68.3%.

In assay [1], `CC[C@H](C)[C@H](NC(=O)[C@H](N)CC(=O)O)C(=O)N[C@@H](CC1CCC(F)(F)CC1)C(=O)N[C@@H](Cc1c[nH]c2ccccc12)C(=O)N[C@@H](CO)C(=O)O` [VIB-0068907] (H-[dD]I[X2]WS-OH; N-terminus and C-terminus assumed) returned an inhibition at 50 µM of 86.2%. This molecule also yielded an inhibition at 100 µM in assay [2] of 47.2%.

As to `CC[C@H](C)[C@H](NC(=O)[C@H](N)CC(=O)O)C(=O)N[C@@H](CCc1ccccc1)C(=O)N[C@@H](Cc1c[nH]c2ccccc12)C(=O)N[C@@H](CO)C(=O)O` [VIB-0068910], at 50 µM the inhibition in assay [1] was 88.6%. For the same molecule, in assay [2], the inhibition at 100 µM worked out at 54.2%.

Molecule `CC(C)[C@H](NC(=O)[C@H](CC(=O)O)NC(=O)[C@@H](CO)NC(=O)[C@@H](CC(=O)O)NC(=O)[C@H](N)CC(=O)O)C(=O)N[C@@H](Cc1c[nH]c2ccccc12)C(=O)N[C@@H](Cc1c[nH]c2ccccc12)C(=O)NCC(=O)NCC(=O)O` [VIB_P07, {D-ASP}{D-ASP}{D-SER}DVWWGG] (H-[dD][dD][dS]DVWWGG-OH; N-terminus and C-terminus assumed) returned an equilibrium dissociation constant (Kd) in assay [3] of 11 µM.

`CC(C)[C@H](NC(=O)[C@H](CC(=O)O)NC(=O)[C@H](CO)NC(=O)[C@@H](CC(=O)O)NC(=O)[C@@H](N)CC(=O)O)C(=O)N[C@@H](Cc1c[nH]c2ccccc12)C(=O)N[C@@H](Cc1c[nH]c2ccccc12)C(=O)NCC(=O)NCC(=O)O` [VIB_P09, D{D-ASP}SDVWWGG] (H-D[dD]SDVWWGG-OH; N-terminus and C-terminus assumed) showed a Kd in assay [3] of 11 µM.

For the molecule DDSDVWWG [VIB_P20, DDSDVWWG], in assay [3], the dissociation constant (Kd) is 1.95 µM.

As to “VIB-0068911: non-natural 5-mer d-I-F72-W-S; d = D-aspartate, F72 = (isoethylmethyl)benzene ([dD]I[F72]WS; not fully specified; printed as d-I-F72-W-S; reading uncertain)”, the “ITC Kd” value in assay [3] was “bound as good as the 17-mer”.

Regarding ADSAVWWGG [VIB_P05], the binding result in assay [4] is recorded as “binds”.

DDSDVWAGG [VIB_P18]: the binding result in assay [4] is “binds”.

For the molecule DDSDAWWGG [VIB_P16], the binding result in assay [4] was “binds”.

On to DDSDVAWGG [VIB_P17], for which the binding result in assay [4] is “binds”.

The values above are taken from patent US20240376149A1, “Novel Modulators of GABABR1a” (VIB VZW, priority 2021, published 2024).
